Data on 1 compound can be found in paper PMC11881577, “In vitro and in vivo activity of 1,2,3,4,6-O-pentagalloyl-glucose against Candida albicans” (Antimicrobial Agents and Chemotherapy, 2025).

The target of experiment [1] is T1, CaEno1 (Candida albicans, UniProt P30575).
T1 construct: gene ENO1; recombinant, 6 × His tag, expressed in E. coli BL21(DE3)
Kind of experiment: spectrophotometric enolase assay (PEP formation at […] nm) on purified enzyme; supported by DARTS. It is filed as biochemical.

The target in experiment [2] is T2, hEno1 (Homo sapiens, UniProt P06733).
T2 construct: gene ENO1; recombinant hEno1, expressed and purified using the same procedure as CaEno1
Kind of experiment: spectrophotometric enolase assay (PEP formation at […] nm) on purified enzyme. In kind it is biochemical.

T2 sequence (P06733 2-434): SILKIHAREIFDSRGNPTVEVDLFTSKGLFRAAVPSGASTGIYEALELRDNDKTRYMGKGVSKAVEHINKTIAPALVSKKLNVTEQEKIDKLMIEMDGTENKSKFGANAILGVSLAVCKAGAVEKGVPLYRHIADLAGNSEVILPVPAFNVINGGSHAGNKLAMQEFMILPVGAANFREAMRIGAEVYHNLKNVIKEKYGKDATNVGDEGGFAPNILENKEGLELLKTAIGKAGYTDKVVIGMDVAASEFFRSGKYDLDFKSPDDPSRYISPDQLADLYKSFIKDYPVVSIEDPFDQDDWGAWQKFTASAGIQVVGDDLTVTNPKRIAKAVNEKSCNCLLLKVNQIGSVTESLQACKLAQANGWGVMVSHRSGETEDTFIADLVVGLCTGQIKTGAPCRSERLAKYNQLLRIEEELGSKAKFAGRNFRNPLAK
T1 sequence (P30575 whole entry): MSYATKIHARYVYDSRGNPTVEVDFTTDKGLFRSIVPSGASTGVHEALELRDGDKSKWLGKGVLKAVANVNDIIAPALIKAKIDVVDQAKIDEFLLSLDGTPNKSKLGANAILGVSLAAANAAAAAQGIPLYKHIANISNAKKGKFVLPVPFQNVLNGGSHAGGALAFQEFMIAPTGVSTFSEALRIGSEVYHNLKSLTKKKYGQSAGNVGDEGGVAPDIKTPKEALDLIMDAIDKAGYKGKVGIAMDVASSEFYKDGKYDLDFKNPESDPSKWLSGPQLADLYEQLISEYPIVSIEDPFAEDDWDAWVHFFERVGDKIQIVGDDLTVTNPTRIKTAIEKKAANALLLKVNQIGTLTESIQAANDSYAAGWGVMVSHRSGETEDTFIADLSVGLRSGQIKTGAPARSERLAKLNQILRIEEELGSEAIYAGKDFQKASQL

As for `O=C(OC[C@H]1O[C@@H](OC(=O)c2cc(O)c(O)c(O)c2)[C@H](OC(=O)c2cc(O)c(O)c(O)c2)[C@@H](OC(=O)c2cc(O)c(O)c(O)c2)[C@@H]1OC(=O)c1cc(O)c(O)c(O)c1)c1cc(O)c(O)c(O)c1` [1,2,3,4,6-O-pentagalloyl-glucose], the Ki (as a rule, the equilibrium dissociation constant of an inhibitor or competing ligand from its target) in experiment [1] was 1.1 ± 0.14 µM. In addition, the IC50 (in general, the concentration needed to halve the response being measured) in experiment [2] was found to be 1.5 ± 0.27 µM.
